Measurements taken from patent US4391828A, “Dibutylorthobenzylmethoxybenzenes and dibutylorthocinnamylmethoxybenzenes as mosquito larvae growth inhibitors” (The United States of America as represented by the …, priority 1982, dated 1983).
≈ marks a conversion by molar mass, not a printed value.

Tests used:
Test in all cases: Growth-inhibition test on mosquito larvae
[1] = system: Anopheles quadrimaculatus; format: in vivo, Anopheles quadrimaculatus (malaria mosquito); conditions: late third- and early fourth-stage larvae, 7 days, corrected by Abbott's formula; for LC50: 168 h, read-out: LC-50 (concentration that would prevent and/or retard the growth in 50% of the treated larvae)
Procedure: (§1) Twenty-five late third-and early fourth-stage mosquito larve were placed in a 500-ml glass jar (9X8.5 cm diam) containing 100 ml of well water, 0.05g ground hog supplement for larval food, and a known amount of the test compound in not more than 1.0ml acetone. The jars were covered with cloth netting and held in constant temperature incubators at 26.7°-28.9° C. and 65-75% relative humidity; a low level of illumination (ca. 0.5 foot candles inside the incubators) was maintained during nonworking hours. After seven days, the jars were examined for the number of dead pupae, the number of adults that were dead or unable to complete eclosion and the number of exuvia. […] Tests were replicated for at least one concentration and a control was set with each test series. Several concentrations of each compound were tested so that a dose-response relationship could be established.
(§2) The effectiveness of the compound in inhibiting growth was determined by adding the numbers of dead larvae and pupae and the numbers of adults that were dead, unable to complete eclosion, and malformed. This sum was corrected by Abbott's formula (to adjust for the number of larvae or pupae which would die naturally). The results are expressed as LC 50 or LC 90, i.e., the concentration of growth inhibitor in ppm that would prevent and/or retard the growth in 50% or 90%, respectively, of the treated larvae.

[2] = system: Aedes taeniorhynchos; format: in vivo; conditions: late third- and early fourth-stage larvae, 7 days, corrected by Abbott's formula
Procedure: as §1, §2

[3] = system: Anopheles albimanus; format: in vivo; conditions: late third- and early fourth-stage larvae, 7 days, corrected by Abbott's formula
Procedure: as §1, §2

[4] = system: Aedes aegypti; format: in vivo, Aedes aegypti (yellow fever mosquito); conditions: late third- and early fourth-stage larvae, 7 days, corrected by Abbott's formula
Procedure: as §1, §2

Row | SMILES | LC50 [1] | LC-90 (concentration that would prevent and/or retard the growth in 90% of the treated larvae) [1] | also measured
1 | CCOc1c(CC=Cc2ccccc2)cc(C(C)(C)C)cc1C(C)(C)C [C-II] | 0.189 µg/mL (≈ 0.539 µM) | 1.042 ppm | –
2 | CCOc1c(C(C)c2ccccc2)cc(C(C)(C)C)cc1C(C)(C)C (stereo not drawn) [A-II] | – | > 1.0 ppm | –
3 | COc1c(C(C)c2ccccc2)cc(C(C)(C)C)cc1C(C)(C)C (stereo not drawn) [A-III] | – | > 1.0 ppm | –
4 | CCOc1c(Cc2ccc(OC)cc2)cc(C(C)(C)C)cc1C(C)(C)C [B-II] | 0.074 µg/mL (≈ 0.209 µM) | 0.285 ppm | –
5 | CC(C)(C)c1cc(Cc2ccccc2)c(O)c(C(C)(C)C)c1 [A-I] | 0.2 µg/mL (≈ 0.675 µM) | 1.37 ppm | –
6 | COc1ccc(C(C)c2cc(C(C)(C)C)cc(C(C)(C)C)c2OC)cc1 (stereo not drawn) [B-IV] | 0.242 µg/mL (≈ 0.683 µM) | 0.556 ppm | –
7 | COc1ccc(Cc2cc(C(C)(C)C)cc(C(C)(C)C)c2OC)cc1 [Compound B, 2,4-Bis (1,1-dimethylethyl)-6-[(4-methoxyphenyl)methyl]-methoxybenzene] | – | 0.032 ppm | LC-50 [2]: 0.009 ppm; LC-90 [2]: 0.023 ppm; LC-50 [3]: .005 ppm; LC-90 [3]: 0.009 ppm; LC-50 [4]: 0.005 ppm; LC-90 [4]: 0.099 ppm
8 | COc1c(Cc2ccccc2)cc(C(C)(C)C)cc1C(C)(C)C [A, 2,4-Bis(1,1-dimethylethyl)-6-(phenylmethyl)methoxybenzene] | 0.065 µg/mL (≈ 0.209 µM) | 0.092 ppm | LC-50 [2]: 0.026 ppm; LC-90 [2]: 0.164 ppm; LC-50 [3]: 0.014 ppm; LC-90 [3]: 0.025 ppm
9 | CC(C)(C)c1cc(CC=Cc2ccccc2)c(O)c(C(C)(C)C)c1 [C-I] | 0.152 µg/mL (≈ 0.471 µM) | 0.399 ppm | –
10 | CCOc1c(C(C)c2ccc(OC)cc2)cc(C(C)(C)C)cc1C(C)(C)C (stereo not drawn) [B-V] | – | > 1.0 ppm | –
11 | COc1ccc(Cc2cc(C(C)(C)C)cc(C(C)(C)C)c2O)cc1 [Compound B-I, 2,4-bis(1,1-dimethylethyl)-6-[(4-methoxyphenyl)methyl]phenol] | 0.12 µg/mL (≈ 0.368 µM) | 0.225 ppm | –
12 | COc1c(CC=Cc2ccccc2)cc(C(C)(C)C)cc1C(C)(C)C [C, 2,4-Bis(1,1-dimethylethyl)-6-(3-phenyl-2-propenyl)methoxybenzene] | 0.026 µg/mL (≈ 0.0773 µM) | 0.089 ppm | –
